Usually EC50 stands for the concentration at which the effect is half-maximal.

The target in data set [1] is T1, human amylin 3(a) receptor (human calcitonin receptor + RAMP-3) (Homo sapiens, UniProt O60896+P30988).
T1 construct: expressed in transfected cells; CRE-luciferase reporter
T1 sequence (P30988 25-474): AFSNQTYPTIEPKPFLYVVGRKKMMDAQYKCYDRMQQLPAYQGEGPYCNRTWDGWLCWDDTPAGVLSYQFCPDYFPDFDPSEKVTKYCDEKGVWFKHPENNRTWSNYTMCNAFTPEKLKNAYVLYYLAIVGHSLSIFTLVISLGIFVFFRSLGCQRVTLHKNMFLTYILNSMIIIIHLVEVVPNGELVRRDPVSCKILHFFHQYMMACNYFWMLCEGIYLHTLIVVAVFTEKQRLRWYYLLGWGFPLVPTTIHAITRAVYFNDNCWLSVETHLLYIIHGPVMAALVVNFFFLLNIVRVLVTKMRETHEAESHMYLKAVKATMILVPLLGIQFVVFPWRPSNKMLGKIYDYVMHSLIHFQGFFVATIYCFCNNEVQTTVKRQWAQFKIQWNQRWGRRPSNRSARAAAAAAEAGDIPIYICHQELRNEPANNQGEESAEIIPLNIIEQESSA
T1 sequence (O60896 24-148 partner): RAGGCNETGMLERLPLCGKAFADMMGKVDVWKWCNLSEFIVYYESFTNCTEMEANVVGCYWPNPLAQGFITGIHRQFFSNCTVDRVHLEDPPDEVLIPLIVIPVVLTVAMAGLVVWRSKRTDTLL
Briefly: Assay (II)a functional assay, human amylin receptor (CRE luciferase reporter in BHK cells). The conditions noted are these: human amylin receptor. The data set is classed as cell-based. The text has this:
(§1) 1. Luciferase Assay Outline
(§2) Activation of calcitonin and amylin (coexpression of calcitonin receptor and receptor activity modifying proteins (RAMP)) receptors lead to increased intracellular concentrations of cAMP. Consequently, transcription is activated by promoters containing multiple copies of the cAMP response element (CRE). It is thus possible to measure amylin activity by the use of a CRE luciferase reporter gene introduced into BHK cells also expressing calcitonin or amylin receptors.
(§3) A BHK570 cell line was stably transfected with the human calcitonin receptor and a CRE-responsive luciferase reporter gene. The cell line was further transfected with RAMP-3, using standard methods. This turns the calcitonin receptor into an amylin 3(a) receptor. Methotrexate, Neomycin, and Hygromycin are selection markers for luciferase, the calcitonin receptor, and RAMP-3, respectively.
(§4) To perform activity assays, BHK calcitonin (a) receptor- or amylin 3(a)-receptor/CRE-luc cells were seeded in white 96 well culture plates at a density of about 20.000 cells/well. […] After incubation overnight at 37° C. and 5% CO2, the growth medium was replaced by 50 μl/well assay medium (DMEM (without phenol red), Glutamax™, 10% FBS, and 10 mM Hepes, pH 7.4). Further, 50 μl/well of standard or sample in assay buffer were added. After 3 hours incubation at 37° C. and 5% CO2, the assay medium with standard or sample were removed and replaced by 100 μl/well PBS. Further, 100 μl/well LucLite™ was added. The plates were sealed and incubated at room temperature for 30 minutes. Finally, luminescence was measured on a TopCounter (Packard) in SPC (single photon counting) mode.

The target in data set [2] is T2, human calcitonin receptor (Homo sapiens, UniProt P30988).
T2 construct: expressed in transfected cells; CRE-luciferase reporter
T2 sequence (P30988 25-474): T1 sequence (P30988 25-474)
The data set is described as follows: Assay (II)a functional assay, human calcitonin receptor (CRE luciferase reporter in BHK cells). In kind it is cell-based.
Source text: as §1, §2, §3, §4

The nature of data set [3]: Assay (III) ThT fibrillation assay for physical stability. The data set is classed as physicochemical. The conditions noted are these: pH 4.0, ThT fibrillation assay. A digest of the protocol:
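Freshly prepared, pH-adjusted formulations with 1 μM ThT incubated at 37 °C under 960 rpm orbital shaking (1 mm), fluorescence (ex 444, em 485 nm) read every 20 min. […] Peptide content before and after measured by reverse-phase HPLC against pramlintide standard.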

Another data set relates to ad libitum fed rat. Briefly: Assay (I) efficacy testing on appetite (food intake) using an ad libitum fed rat model. The conditions noted are these: 3 nmol/kg. In kind it is in vivo, Sprague Dawley (SD) rats. A digest of the protocol:
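Ad libitum fed Sprague Dawley rats, 200-250 g, singly housed on reversed light cycle, got one ip, po or sc dose of 0.01-3 mg/kg just before lights off; groups of 5-8 with vehicle control. Food intake recorded hourly for 7 h, then at 24 h and sometimes 48 h; Grubbs outliers excluded.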

The structures appear in SMILES notation. Read-outs that look alike come from different tables or passages of the source. Starred links: 1 amine or outer side, 2 acyl side, 3 side chain; linkers in the order of their positions; H or OH if unused. Positions of bridges follow the written chain, without caps; N, C: chain ends. Residues, ends and D or L forms follow the SMILES beside them. Groups on a side chain read outwards from the residue. *: point of attachment. C20 diacid = O=C(O)CCCCCCCCCCCCCCCCCCC(=O)*; C18 diacid = O=C(O)CCCCCCCCCCCCCCCCC(=O)*; γGlu = O=C(O)[C@H](CCC(=O)[*:2])N[*:1]; AEEA = NCCOCCOCC(=O)O

Consider `CC[C@H](C)[C@H](NC(=O)[C@H](CCCCNC(=O)COCCOCCNC(=O)COCCOCCNC(=O)CC[C@H](NC(=O)CCCCCCCCCCCCCCCCC(=O)O)C(=O)O)NC(=O)CNC(=O)[C@H](Cc1ccccc1)NC(=O)[C@H](CC(N)=O)NC(=O)[C@H](CC(N)=O)NC(=O)[C@H](CO)NC(=O)[C@H](CO)NC(=O)[C@H](Cc1c[nH]cn1)NC(=O)[C@@H](NC(=O)[C@H](CC(C)C)NC(=O)[C@H](Cc1ccccc1)NC(=O)[C@H](CCC(=O)O)NC(=O)[C@H](C)NC(=O)[C@H](CC(C)C)NC(=O)[C@H](CCCNC(=N)N)NC(=O)[C@H](CCC(N)=O)NC(=O)[C@@H](NC(=O)[C@H](C)NC(=O)[C@@H]1CSSC[C@H](NC(=O)[C@@H](N)CCCCN)C(=O)N[C@@H](CC(N)=O)C(=O)N[C@@H]([C@@H](C)O)C(=O)N[C@@H](C)C(=O)N[C@@H]([C@@H](C)O)C(=O)N1)[C@@H](C)O)C(C)C)C(=O)N[C@@H](CC(C)C)C(=O)N1CCC[C@H]1C(=O)N1CCC[C@H]1C(=O)N[C@H](C(=O)N[C@@H](CC(N)=O)C(=O)N[C@H](C(=O)NCC(=O)N[C@@H](CO)C(=O)N[C@@H](CC(N)=O)C(=O)N[C@H](C(=O)N[C@@H](Cc1ccc(O)cc1)C(N)=O)[C@@H](C)O)C(C)C)[C@@H](C)O` [Example 126] (H-KCNTATCATQRLAEFLVHSSNNFGK([AEEA-AEEA-γGlu-C18 diacid])ILPPTNVGSNTY-NH2; disulfide 2-7 (inferred); N-terminus and C-terminus assumed), for which the EC50 in data set [1] (Table 11) was 0.076 nM; in data set [2] (Table 11, human calcitonin receptor, read-out: CTa receptor human EC50), 0.101 nM.
For `CC[C@H](C)[C@H](NC(=O)[C@@H]1CCCN1C(=O)CNC(=O)[C@H](CC(C)C)NC(=O)[C@H](CCC(=O)O)NC(=O)[C@H](CCC(N)=O)NC(=O)[C@@H](NC(=O)[C@H](C)NC(=O)[C@H](CCCNC(=N)N)NC(=O)[C@H](Cc1c[nH]cn1)NC(=O)[C@H](CC(C)C)NC(=O)[C@H](Cc1ccccc1)NC(=O)[C@H](CCC(=O)O)NC(=O)[C@H](C)NC(=O)[C@H](CC(C)C)NC(=O)[C@H](CCCNC(=N)N)NC(=O)[C@H](CCC(N)=O)NC(=O)[C@@H](NC(=O)[C@H](C)NC(=O)[C@@H]1CSSC[C@H](NC(=O)[C@H](Cc2c[nH]cn2)NC(=O)COCCOCCNC(=O)COCCOCCNC(=O)CC[C@H](NC(=O)CCCCCCCCCCCCCCCCCCC(=O)O)C(=O)O)C(=O)N[C@@H](CC(N)=O)C(=O)N[C@@H]([C@@H](C)O)C(=O)N[C@@H](C)C(=O)N[C@@H]([C@@H](C)O)C(=O)N1)[C@@H](C)O)[C@@H](C)O)C(=O)N[C@@H](CC(C)C)C(=O)N1CCC[C@H]1C(=O)N1CCC[C@H]1C(=O)N[C@H](C(=O)N[C@@H](CC(N)=O)C(=O)N[C@H](C(=O)NCC(=O)N[C@@H](CO)C(=O)N[C@@H](CC(N)=O)C(=O)N[C@H](C(=O)N[C@@H](Cc1ccc(O)cc1)C(N)=O)[C@@H](C)O)C(C)C)[C@@H](C)O` [Example 23] ({C20 diacid-γGlu-AEEA-AEEA}-HCNTATCATQRLAEFLHRATQELGPILPPTNVGSNTY-NH2; disulfide 2-7), the EC50 in data set [1] (Table 6) was found to be 0.385 nM; in data set [2] (Table 7, human calcitonin (CTa) receptor) it was 0.492 nM.
Take `CC[C@H](C)[C@H](NC(=O)[C@@H]1CCCN1C(=O)CNC(=O)[C@H](Cc1ccccc1)NC(=O)[C@H](CC(N)=O)NC(=O)[C@H](CC(N)=O)NC(=O)[C@H](CO)NC(=O)[C@H](CO)NC(=O)[C@H](Cc1c[nH]cn1)NC(=O)[C@H](Cc1c[nH]cn1)NC(=O)[C@H](CC(C)C)NC(=O)[C@H](Cc1ccccc1)NC(=O)[C@H](CCC(=O)O)NC(=O)[C@H](C)NC(=O)[C@H](CC(C)C)NC(=O)[C@H](CCCNC(=N)N)NC(=O)[C@H](CCC(N)=O)NC(=O)[C@@H](NC(=O)[C@H](C)NC(=O)[C@@H]1CSSC[C@H](NC(=O)[C@@H](N)CCCCNC(=O)CC[C@H](NC(=O)CCCCCCCCCCCCCCCCCCC(=O)O)C(=O)O)C(=O)N[C@@H](CC(N)=O)C(=O)N[C@@H]([C@@H](C)O)C(=O)N[C@@H](C)C(=O)N[C@@H]([C@@H](C)O)C(=O)N1)[C@@H](C)O)C(=O)N[C@@H](CC(C)C)C(=O)N1CCC[C@H]1C(=O)N1CCC[C@H]1C(=O)N[C@H](C(=O)N[C@@H](CC(N)=O)C(=O)N[C@H](C(=O)NCC(=O)N[C@@H](CO)C(=O)N[C@@H](Cc1c[nH]cn1)C(=O)N[C@H](C(=O)N[C@@H](Cc1ccc(O)cc1)C(N)=O)[C@@H](C)O)C(C)C)[C@@H](C)O` [Example 87, N-epsilon1-[(S)-4-Carboxy-4-(19-carboxynonadecanoylamino)butyryl]-[Glu14,His17,His35]-pramlintide] (H-K([γGlu-C20 diacid])CNTATCATQRLAEFLHHSSNNFGPILPPTNVGSHTY-NH2; disulfide 2-7 (inferred); C-terminus assumed): the “ThT pH 4.0 lag time” value in data set [3] was 25 h. Also, in the data set on ad libitum fed rat, the “Food intake reduction 0-24 h 3 nmol/kg (%)” value turned out to be 66% and the “Food intake reduction 24-48 h 3 nmol/kg (%)” value stood at 47%.
As for `CC[C@H](C)[C@H](NC(=O)[C@@H]1CCCN1C(=O)CNC(=O)[C@H](Cc1ccccc1)NC(=O)[C@H](CC(N)=O)NC(=O)[C@H](CC(N)=O)NC(=O)[C@H](CO)NC(=O)[C@H](CO)NC(=O)[C@H](Cc1c[nH]cn1)NC(=O)[C@H](CCCNC(=N)N)NC(=O)[C@H](CC(C)C)NC(=O)[C@H](Cc1ccccc1)NC(=O)[C@H](CCC(=O)O)NC(=O)[C@H](C)NC(=O)[C@H](CC(C)C)NC(=O)[C@H](CCCNC(=N)N)NC(=O)[C@H](CCC(N)=O)NC(=O)[C@@H](NC(=O)[C@H](C)NC(=O)[C@@H]1CSSC[C@H](NC(=O)[C@H](CCCCN)NC(=O)[C@H](Cc2c[nH]cn2)NC(=O)CC[C@H](NC(=O)CCCCCCCCCCCCCCCCC(=O)O)C(=O)O)C(=O)N[C@@H](CC(N)=O)C(=O)N[C@@H]([C@@H](C)O)C(=O)N[C@@H](C)C(=O)N[C@@H]([C@@H](C)O)C(=O)N1)[C@@H](C)O)C(=O)N[C@@H](CC(C)C)C(=O)N1CCC[C@H]1C(=O)N1CCC[C@H]1C(=O)N[C@H](C(=O)N[C@@H](CC(N)=O)C(=O)N[C@H](C(=O)NCC(=O)N[C@@H](CO)C(=O)N[C@@H](Cc1c[nH]cn1)C(=O)N[C@H](C(=O)N[C@@H](Cc1ccc(O)cc1)C(N)=O)[C@@H](C)O)C(C)C)[C@@H](C)O` [Example 71, N-alpha-[(S)-4-Carboxy-4-(17-carboxyheptadecanoylamino)butyryl]-His-[Glu14,Arg17,His35]-pramlintide] ({C18 diacid-γGlu}-HKCNTATCATQRLAEFLRHSSNNFGPILPPTNVGSHTY-NH2; disulfide 3-8 (inferred)), the “ThT pH 4.0 lag time” value in data set [3] is listed as greater than 45 h. Further, in the data set on ad libitum fed rat, the “Food intake reduction 0-24 h 3 nmol/kg (%)” value worked out at 10% and the “Food intake reduction 24-48 h 3 nmol/kg (%)” value is 0%.

The values are drawn from patent publication US8741836B2, “Polypeptides” (Novo Nordisk A/S, priority 2011, dated 2014).
